Data set [1] in a line: Loss in mass (dehydration) of monohydrate form C at low humidity. Format: physicochemical. The following applies: below 50% humidity and between 20° C. and 80° C.; 1 mole of water/mole of the acid. As to the method: According to another aspect of the present invention, form A can also be obtained from another monohydrate crystalline form known hereinbelow as form C. Below 50% humidity and between 20° C. and 80° C., form C undergoes a loss in mass of 3.7% by weight (1 mole of water/mole of the acid). […] Form B is obtained more particularly by heating form C to 70° C. or from form C held at 25° C. at 0% humidity.

The nature of data set [2]: Stability at high temperature of the crystalline form. Format: physicochemical. The following applies: up to its melting point.
The format of data set [3] is physicochemical.

Each structure is given as a SMILES string.

For `COc1ccc2nccc([C@@H](O)CC[C@@H]3CCN(CCSc4cccs4)C[C@@H]3C(=O)O)c2c1` [Form C, (3R,4R)-4-[3-(S)-hydroxy-3-(6-methoxyquinolin-4-yl)propyl]-1-[2-(2-thienylthio)ethyl]piperidine-3-carboxylic acid], in data set [1], the “loss in mass (dehydration to form B)” value was 3.7 % by weight.
As to `COc1ccc2nccc([C@@H](O)CC[C@@H]3CCN(CCSc4cccs4)C[C@@H]3C(=O)O)c2c1` [Form A, (3R,4R)-4-[3-(S)-hydroxy-3-(6-methoxyquinolin-4-yl)propyl]-1-[2-(2-thienylthio)ethyl]piperidine-3-carboxylic acid], in data set [2], the “stability at high temperature” value is listed as “stable at high temperature, namely up to its melting point”. For the same compound, the hygroscopicity result in data set [3] (solid crystalline form) is given as “not hygroscopic”. In addition, in data set [3] (storage at 97% relative humidity for 11 weeks at 20° C.), the state after storage result is “still anhydrous and stable”.
